Tests used:
Type in all cases: in vivo
[1] = test system: ryegrass, Italian (Italian ryegrass, Lolium multiflorum); experiment: Test C postemergence, Italian ryegrass; settings: visual injury, 0 to 100 scale (0 no effect, 100 complete control)
Description: (§1) Seeds of plant species selected from blackgrass (Alopecurus myosuroides), corn (Zea mays), foxtail, giant (giant foxtail, Setaria faberi), goosegrass (Eleusine indica), kochia (Bassia scoparia), oat, wild (wild oat, Avena fatua), pigweed, palmer (palmer amaranth, Amaranthus palmeri), ragweed (common ragweed, Ambrosia artemisiifolia), ryegrass, Italian (Italian ryegrass, Lolium multiflorum), soybean (Glycine max) and wheat (Triticum aestivum) were planted into a blend of loam soil and sand and treated preemergence with a directed soil spray using test chemicals formulated in a non-phytotoxic solvent mixture which included a surfactant.
(§2) At the same time, plants selected from these crop and weed species and also galium (catchweed bedstraw, Galium aparine) and horseweed (Erigeron canadensis) were planted in pots containing the same blend of loam soil and sand and treated with postemergence applications of test chemicals formulated in the same manner. Plants ranged in height from 2 to 10 cm and were in the one- to two-leaf stage for the postemergence treatment. Treated plants and untreated controls were maintained in a greenhouse for 10 or 12 days, after which time all treated plants were compared to untreated controls and visually evaluated for injury. Plant response ratings, summarized in Table A, are based on a 0 to 100 scale where 0 is no effect and 100 is complete control. A dash (-) response means no test result.

[2] = test system: blackgrass (Alopecurus myosuroides); experiment: Test C postemergence, blackgrass; settings: visual injury, 0 to 100 scale (0 no effect, 100 complete control)
Description: as §1, §2

kochia (Bassia scoparia) [3] = experiment: Test C postemergence, kochia; settings: visual injury, 0 to 100 scale (0 no effect, 100 complete control)
Description: as §1, §2

kochia (Bassia scoparia) [4] = experiment: Test C preemergence, kochia; settings: 0 is no effect, 100 is complete control
Description: as §1, §2

soybean (Glycine max) [5] = experiment: Test C preemergence, soybean; settings: 0 is no effect, 100 is complete control
Description: as §1, §2

[6] = test system: galium (catchweed bedstraw, Galium aparine); experiment: Test C postemergence, galium; settings: visual injury, 0 to 100 scale (0 no effect, 100 complete control)
Description: as §1, §2

[7] = test system: wheat (Triticum aestivum); experiment: Test C postemergence, wheat; settings: visual injury, 0 to 100 scale (0 no effect, 100 complete control)
Description: as §1, §2

[8] = test system: ducksalad (Heteranthera limosa); experiment: Test D flooded paddy test, ducksalad; parameters: key: 0 = no effect, 100 = complete control; settings: 250 g ai/ha, Flood; applied to paddy water at 2-leaf stage; visual rating after 13 days; scale 0 (no effect) to 100 (complete control)
Method: (§3) Plant species in the flooded paddy test selected from barnyardgrass (Echinochloa crusgalli), ducksalad (Heteranthera limosa), rice (Oryza sativa), and sedge, umbrella (small-flower umbrella sedge, Cyperus difformis) were grown to the 2-leaf stage for testing. At time of treatment, test pots were flooded to 3 cm above the soil surface, treated by application of test compounds directly to the paddy water, and then maintained at that water depth for the duration of the test. Treated plants and controls were maintained in a greenhouse for 13 days, after which time all species were compared to controls and visually evaluated. Plant response ratings, summarized in Table B, are based on a scale of 0 to 100 where 0 is no effect and 100 is complete control. A dash (-) response means no test result.

[9] = test system: sedge, umbrella (small-flower umbrella sedge, Cyperus difformis); experiment: Test D flooded paddy test, umbrella sedge; parameters: key: 0 = no effect, 100 = complete control; settings: 250 g ai/ha, Flood; applied to paddy water at 2-leaf stage; visual rating after 13 days; scale 0 (no effect) to 100 (complete control)
Method: as §3

corn (Zea mays) [10] = experiment: Test C preemergence, corn; settings: 0 is no effect, 100 is complete control
Description: as §1, §2

[11] = test system: goosegrass (Eleusine indica); experiment: Test C postemergence, goosegrass; settings: visual injury, 0 to 100 scale (0 no effect, 100 complete control)
Description: as §1, §2

[12] = test system: ragweed (common ragweed, Ambrosia artemisiifolia); experiment: Test C preemergence, ragweed; settings: 0 is no effect, 100 is complete control
Description: as §1, §2

[13] = test system: blackgrass (Alopecurus myosuroides); experiment: Test C preemergence, blackgrass; settings: 0 is no effect, 100 is complete control
Description: as §1, §2

[14] = test system: horseweed (Erigeron canadensis); experiment: Test C postemergence, horseweed; settings: visual injury, 0 to 100 scale (0 no effect, 100 complete control)
Description: as §1, §2

soybean (Glycine max) [15] = experiment: Test C postemergence, soybean; settings: visual injury, 0 to 100 scale (0 no effect, 100 complete control)
Description: as §1, §2

[16] = test system: barnyardgrass (Echinochloa crusgalli); experiment: Test D flooded paddy test, barnyardgrass; parameters: key: 0 = no effect, 100 = complete control; settings: 250 g ai/ha, Flood; applied to paddy water at 2-leaf stage; visual rating after 13 days; scale 0 (no effect) to 100 (complete control)
Method: as §3

[17] = test system: ryegrass, Italian (Italian ryegrass, Lolium multiflorum); experiment: Test C preemergence, Italian ryegrass; settings: 0 is no effect, 100 is complete control
Description: as §1, §2

[18] = test system: pigweed, palmer (palmer amaranth, Amaranthus palmeri); experiment: Test C preemergence, palmer amaranth; settings: 0 is no effect, 100 is complete control
Description: as §1, §2

[19] = test system: oat, wild (wild oat, Avena fatua); experiment: Test C preemergence, wild oat; settings: 0 is no effect, 100 is complete control
Description: as §1, §2

[20] = test system: goosegrass (Eleusine indica); experiment: Test C preemergence, goosegrass; settings: 0 is no effect, 100 is complete control
Description: as §1, §2

[21] = test system: ragweed (common ragweed, Ambrosia artemisiifolia); experiment: Test C postemergence, ragweed; settings: visual injury, 0 to 100 scale (0 no effect, 100 complete control)
Description: as §1, §2

[22] = test system: pigweed, palmer (palmer amaranth, Amaranthus palmeri); experiment: Test C postemergence, palmer amaranth; settings: visual injury, 0 to 100 scale (0 no effect, 100 complete control)
Description: as §1, §2

[23] = test system: foxtail, giant (giant foxtail, Setaria faberi); experiment: Test C preemergence, giant foxtail; settings: 0 is no effect, 100 is complete control
Description: as §1, §2

[24] = test system: foxtail, giant (giant foxtail, Setaria faberi); experiment: Test C postemergence, giant foxtail; settings: visual injury, 0 to 100 scale (0 no effect, 100 complete control)
Description: as §1, §2

[25] = test system: oat, wild (wild oat, Avena fatua); experiment: Test C postemergence, wild oat; settings: visual injury, 0 to 100 scale (0 no effect, 100 complete control)
Description: as §1, §2

[26] = test system: wheat (Triticum aestivum); experiment: Test C preemergence, wheat; settings: 0 is no effect, 100 is complete control
Description: as §1, §2

rice (Oryza sativa) = experiment: Test D flooded paddy test, rice; parameters: key: 0 = no effect, 100 = complete control; settings: 250 g ai/ha, Flood; applied to paddy water at 2-leaf stage; visual rating after 13 days; scale 0 (no effect) to 100 (complete control)
Method: as §3

corn (Zea mays) [27] = experiment: Test C postemergence, corn; settings: visual injury, 0 to 100 scale (0 no effect, 100 complete control)
Description: as §1, §2

CC#CCOC1CCN(c2cc(NS(=O)(=O)C(F)(F)F)c(C)cc2C)C1=O (stereo not shown) [Compound 60]
Ryegrass, Italian plant response rating ([1]; 31 g ai/ha Postemergence): 50
Ryegrass, Italian plant response rating ([1]; 125 g ai/ha Postemergence): 70
Blackgrass plant response rating ([2]; 31 g ai/ha Postemergence): 50
Blackgrass plant response rating ([2]; 125 g ai/ha Postemergence): 90
Kochia plant response rating (kochia (Bassia scoparia) [3]; 31 g ai/ha Postemergence): 100
Kochia plant response rating (kochia (Bassia scoparia) [3]; 125 g ai/ha Postemergence): 90
Plant response rating (0 to 100 scale), Kochia (kochia (Bassia scoparia) [4]; 31 g ai/ha Preemergence): 90
Plant response rating (0 to 100 scale), Kochia (kochia (Bassia scoparia) [4]; 125 g ai/ha Preemergence): 100
Plant response rating (0 to 100 scale), Soybean (soybean (Glycine max) [5]; 31 g ai/ha Preemergence): 50
Plant response rating (0 to 100 scale), Soybean (soybean (Glycine max) [5]; 125 g ai/ha Preemergence): 90
Galium plant response rating ([6]; 31 g ai/ha Postemergence): 100
Galium plant response rating ([6]; 125 g ai/ha Postemergence): 100
Wheat plant response rating ([7]; 31 g ai/ha Postemergence): 80
Wheat plant response rating ([7]; 125 g ai/ha Postemergence): 90
Plant response rating, Ducksalad [8]: 90
Plant response rating, Sedge, Umbrella [9]: 95
Plant response rating (0 to 100 scale), Corn (corn (Zea mays) [10]; 31 g ai/ha Preemergence): 30
Plant response rating (0 to 100 scale), Corn (corn (Zea mays) [10]; 125 g ai/ha Preemergence): 100
Goosegrass plant response rating ([11]; 31 g ai/ha Postemergence): 80
Goosegrass plant response rating ([11]; 125 g ai/ha Postemergence): 90
Plant response rating (0 to 100 scale), Ragweed ([12]; 31 g ai/ha Preemergence): 90
Plant response rating (0 to 100 scale), Ragweed ([12]; 125 g ai/ha Preemergence): 100
Plant response rating (0 to 100 scale), Blackgrass ([13]; 31 g ai/ha Preemergence): 80
Plant response rating (0 to 100 scale), Blackgrass ([13]; 125 g ai/ha Preemergence): 90
Horseweed plant response rating ([14]; 31 g ai/ha Postemergence): 80
Horseweed plant response rating ([14]; 125 g ai/ha Postemergence): 100
Soybean plant response rating (soybean (Glycine max) [15]; 31 g ai/ha Postemergence): 80
Soybean plant response rating (soybean (Glycine max) [15]; 125 g ai/ha Postemergence): 100
Plant response rating, Barnyardgrass [16]: 90
Plant response rating (0 to 100 scale), Ryegrass, Italian ([17]; 31 g ai/ha Preemergence): 70
Plant response rating (0 to 100 scale), Ryegrass, Italian ([17]; 125 g ai/ha Preemergence): 100
Plant response rating (0 to 100 scale), Pigweed, Palmer ([18]; 31 g ai/ha Preemergence): 100
Plant response rating (0 to 100 scale), Pigweed, Palmer ([18]; 125 g ai/ha Preemergence): 100
Plant response rating (0 to 100 scale), Oat, Wild ([19]; 31 g ai/ha Preemergence): 90
Plant response rating (0 to 100 scale), Oat, Wild ([19]; 125 g ai/ha Preemergence): 100
Plant response rating (0 to 100 scale), Goosegrass ([20]; 31 g ai/ha Preemergence): 90
Plant response rating (0 to 100 scale), Goosegrass ([20]; 125 g ai/ha Preemergence): 100
Ragweed plant response rating ([21]; 31 g ai/ha Postemergence): 80
Ragweed plant response rating ([21]; 125 g ai/ha Postemergence): 90
Pigweed, Palmer plant response rating ([22]; 31 g ai/ha Postemergence): 60
Pigweed, Palmer plant response rating ([22]; 125 g ai/ha Postemergence): 90
Plant response rating (0 to 100 scale), Foxtail, Giant ([23]; 31 g ai/ha Preemergence): 100
Plant response rating (0 to 100 scale), Foxtail, Giant ([23]; 125 g ai/ha Preemergence): 100
Foxtail, Giant plant response rating ([24]; 31 g ai/ha Postemergence): 80
Foxtail, Giant plant response rating ([24]; 125 g ai/ha Postemergence): 90
Oat, Wild plant response rating ([25]; 31 g ai/ha Postemergence): 30
Oat, Wild plant response rating ([25]; 125 g ai/ha Postemergence): 90
Plant response rating (0 to 100 scale), Wheat ([26]; 31 g ai/ha Preemergence): 40
Plant response rating (0 to 100 scale), Wheat ([26]; 125 g ai/ha Preemergence): 100
Plant response rating, Rice (rice (Oryza sativa)): 35
Corn plant response rating (corn (Zea mays) [27]; 31 g ai/ha Postemergence): 90
Corn plant response rating (corn (Zea mays) [27]; 125 g ai/ha Postemergence): 100

Reference: patent US20240158348A1, “HERBICIDAL CYCLIC AMIDES N-SUBSTITUTED WITH A HALOALKYLSULFONYLANILIDE GROUP” (FMC Corporation, priority 2021, published 2024)
